# Assay results published in publication PMC12087874, “Biaryl Phosphates and Phosphonates as Selective Inhibitors of the Transcription Factor STAT4” (Angewandte Chemie (International Ed. in English), 2025).
# Changes are numbered by the printed parent chain.
# How the values were obtained:
# Type in all cases: binding
# STAT4 Lys580Ala = molecular target: T1, STAT4 Lys580Ala (Homo sapiens, UniProt Q14765, K580A); assay: Isothermal titration calorimetry (ITC), STAT4 Lys580Ala; settings: n = 4
# T1 construct: 6xHis; made in house
# T1 sequence (Q14765 1-748 K580A): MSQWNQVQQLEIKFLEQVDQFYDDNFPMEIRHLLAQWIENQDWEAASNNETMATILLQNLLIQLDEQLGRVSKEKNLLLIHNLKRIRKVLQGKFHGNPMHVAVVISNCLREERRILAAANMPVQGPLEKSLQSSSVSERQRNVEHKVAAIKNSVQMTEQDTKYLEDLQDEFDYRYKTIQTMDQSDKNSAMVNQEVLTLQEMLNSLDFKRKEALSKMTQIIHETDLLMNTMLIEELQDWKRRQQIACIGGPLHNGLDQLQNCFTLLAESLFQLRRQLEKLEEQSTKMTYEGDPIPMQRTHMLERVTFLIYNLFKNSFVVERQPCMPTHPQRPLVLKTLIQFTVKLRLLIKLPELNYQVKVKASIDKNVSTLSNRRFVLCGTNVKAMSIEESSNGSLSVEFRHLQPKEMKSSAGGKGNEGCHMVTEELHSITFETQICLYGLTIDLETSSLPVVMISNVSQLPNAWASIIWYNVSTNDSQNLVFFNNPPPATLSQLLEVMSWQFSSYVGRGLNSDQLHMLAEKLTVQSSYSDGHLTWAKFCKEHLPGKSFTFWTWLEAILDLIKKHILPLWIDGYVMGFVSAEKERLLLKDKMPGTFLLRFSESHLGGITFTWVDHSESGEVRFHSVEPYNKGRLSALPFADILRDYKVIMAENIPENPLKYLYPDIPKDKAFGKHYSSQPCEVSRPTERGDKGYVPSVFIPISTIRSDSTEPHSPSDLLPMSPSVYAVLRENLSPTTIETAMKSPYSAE
# Method: Isothermal Titration Calorimetry
# Purification of 6xHis-tagged proteins for ITC experiments was carried out by affinity chromatography on His-Bind resin. The eluting fractions were analyzed by SDS -PAGE.
# Proteins were dialyzed against ITC buffer (10 mM Tris pH 8.0, 50 mM NaCl) using dialysi s tubing with a 50 kDa cut-off. ITC experiments were performed using a VP-ITC Micro Calorimeter (MicroCal). 6m was dissolved as a 100 mM stock in DMSO and diluted 1/1000 in ITC buffer (Tris pH 8.0 and 50 mM NaCl), resulting in a final concentration of 100 µM. 8k was dissolved as a 5 mM stock in ITC buffer and diluted 1/25 in ITC buffer with DMSO, resulting in a final concentration of 200 µM 8k. DMSO was added to a final concentration of 2% (v/v). To avoid errors caused by the detection of dilution heat, 0.1 % (v/v) DMSO for 6m or 2% (v/v) DMSO for 8k experiments was added to the buffers containing the proteins and to the reference buffer. Proteins were degassed before the experiments using a ThermoVac sample degassing station. The following conditions were used for ITC experiments: 10 µM STAT4 protein for 6m or 20 µM STAT4 protein for 8k experiments, 100 µM 6m or 200 µM 8k, 28 injections with 10 µL single injection volume, 250 s initial delay, 500 s spacing between injections, 250 µcal/s reference power, 300 rpm stirring at 25 °C for 6m or 220 rpm stirring at 25 °C for 8k. […]
# STAT4 Arg598Ala = molecular target: T2, STAT4 Arg598Ala (Homo sapiens, UniProt Q14765, R598A); assay: Isothermal titration calorimetry (ITC), STAT4 Arg598Ala; settings: n = 4
# T2 construct: 6xHis; made in house
# T2 sequence (Q14765 1-748 R598A): T1 sequence (Q14765 1-748 K580A) with A580K, R598A
# STAT3 = STAT3 (Homo sapiens, UniProt P40763); assay: CETSA of STAT3 in lysates from NK-92 cells; set-up: endogenous in cells; host or cells: NK-92 (DSMZ) lysate
# Chain of STAT3 (P40763 whole entry): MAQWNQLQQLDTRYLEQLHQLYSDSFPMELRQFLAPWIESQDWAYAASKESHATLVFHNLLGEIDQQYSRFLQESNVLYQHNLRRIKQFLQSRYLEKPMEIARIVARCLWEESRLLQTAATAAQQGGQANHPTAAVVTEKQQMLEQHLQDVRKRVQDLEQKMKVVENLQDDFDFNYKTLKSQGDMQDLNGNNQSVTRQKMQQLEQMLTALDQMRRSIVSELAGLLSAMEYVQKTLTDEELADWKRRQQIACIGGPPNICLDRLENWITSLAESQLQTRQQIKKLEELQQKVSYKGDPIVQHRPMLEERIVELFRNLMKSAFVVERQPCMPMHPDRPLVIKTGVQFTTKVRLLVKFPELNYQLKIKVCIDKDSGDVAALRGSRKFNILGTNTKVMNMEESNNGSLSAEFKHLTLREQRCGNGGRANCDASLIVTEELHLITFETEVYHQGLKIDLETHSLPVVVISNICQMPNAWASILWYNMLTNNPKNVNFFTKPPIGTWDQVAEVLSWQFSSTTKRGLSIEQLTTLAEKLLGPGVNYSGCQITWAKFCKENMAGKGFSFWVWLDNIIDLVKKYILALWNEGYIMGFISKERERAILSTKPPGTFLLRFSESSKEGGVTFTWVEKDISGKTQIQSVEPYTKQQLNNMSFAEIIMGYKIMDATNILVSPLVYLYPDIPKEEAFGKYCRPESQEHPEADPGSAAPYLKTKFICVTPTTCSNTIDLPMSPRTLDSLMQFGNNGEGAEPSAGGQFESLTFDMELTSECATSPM
# Method: NK-92 cells (DSMZ) were cultured in -MEM containing 12.5% fetal bovine serum (FBS), 12.5% horse serum, 2 mM L-glutamine, penicillin/streptomycin and 50 U/ml IL -2.
# NK-92 cells were treated with test compound or DMSO in 1.5 ml medium in 12 -well plates (Corning) for 2 h (final DMSO concentration 0.2%), in the presence of 50 ng/ml IL -12 (PeproTech). […] Cells were harvested by washing twice with ice -cold TBS, followed by resuspension in TBS supplemented with protease/phosphatase inhibitors (100 ng/ml aprotinin, 1 mM Na3VO4, 10 mM NaF, 1 mM PMSF). […] Cells were lysed using three freeze -thaw cycles with liquid nitrogen and lysates cleared by centrif ugation.
# NK-92 cell lysates were prepared for CETSA experiments by washing cultured cells once with TBS and resuspending in TBS supplemented with Halt Protease In hibitor Cocktail, EDTA-free (Fisher Scientific) at 3 x 10^6 cells per 100 µl. Cells were lysed using three freeze -thaw cycles with liquid nitrogen and lysates cleared by centrifugation.
# CETSA experiments were performed essentially using the published protocol. […] Briefly, NK-92 cell lysates were incubated with test compound or DMSO for 15 min at room temperature (final DMSO concentration 2%). During this time, the treated lysate was divided into 10x 50 µl aliquots in 0.2 ml reaction tubes. Samples were then heated to the designated temperatures in a Veriti Pro Thermocycler (Thermo Fishe r Scientific) for 3 min, followed by 3 min incubation at room temperature, and then placed on ice. […] The soluble fractions were subsequently analyzed by Western blotting.
# The components of cell lysates from treated cells, or heat-treated lysates from CETSA, were separated by SDS-PAGE (10%), transferred to nitrocellulose membrane (Bio-Rad) and detected using monoclonal rabbit primary antibodies (Cell Signaling), -rabbit-HRP secondary antibody (Dako) and Western Lightning Plus chemiluminescence reagent (Perkin Elmer).
# Bands were visualized using an ImageQuant system (GE Healthcare) and quantitated using ImageJ software (NIH).
smiles,measurement,setting,value
O=P(O)(O)Oc1ccc(-c2ccc3ccccc3c2)cc1F [Compound 6m],binding to STAT4 point mutant Lys580Ala (ITC),STAT4 Lys580Ala,too weak for reliable quantification
same,binding to STAT4 point mutant Arg598Ala (ITC),STAT4 Arg598Ala,no heat release
Cc1cc(-c2ccc(C(F)(F)P(=O)(O)O)c(F)c2)cs1 [Compound 8k],ΔT agg of STAT3,"STAT3; CETSA, NK-92 cell lysates, versus DMSO control",−0.4 °C
same,T agg of STAT3,"STAT3; CETSA, NK-92 cell lysates, DMSO control 51.0 ± 0.3 °C, n = 3",50.6 ± 0.2 °C
same,stabilization of STAT3 against thermal degradation,"STAT3; lysates from NK-92 cells, Ac-pYLPQTV-NH2 at 100 µM",does not stabilize
